One may read the IC50 as the concentration at which inhibition is half-maximal.

Molecules are shown by their SMILES. Active and inactive are the calls of the source.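 The calls were made as follows: active = compounds whose fitted half-maximal concentration in the cell-protection dose series is at or below a set limit; inactive = the rest.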

This assay relates to H9c2 cardiomyocytes, 2-deoxyglucose stress, ATP luminescence, 2 h. Description: H9c2 cell survival under 2-deoxyglucose stress – uHTS hits, dose response (AID 588780).
In the case of `COc1cc2oc3cc(C#Cc4ccc(N)cc4)ccc3c(=O)c2cc1OC`, the IC50 is > 79 µM (inactive). For the compound `O=C(Nc1cccc(/C=C/c2ccccn2)c1)c1ccc(-n2cncn2)cc1`, the IC50 was 42.9 µM (inactive). For `C/C(=N\NC(=O)c1c(Br)c(C)nn1C)c1ccc(NC(=O)c2ccoc2C)cc1`, the IC50 is > 79 µM (inactive). Next, `O=C(Nc1ccc2c(c1)[nH]c(=O)c1ccccc12)C(F)(F)F`: > 79 µM (inactive). Consider `C/C(=N\NC(=O)c1ccccc1-n1cccc1)c1ccccn1`, for which the IC50 was > 79 µM (inactive). For `O=C(Nc1cccc(-c2nc3cccnc3s2)c1)c1ccco1`, the IC50 was > 79 µM (inactive). In the case of `COc1ccc(-c2nn3c(-c4ccccc4)nnc3s2)cc1OC`, the IC50 was > 79 µM (inactive). With `Cc1c(C#N)c(N)nc2c3c(sc12)NC(=O)CC3c1ccccc1` (configuration not stated), the IC50 is > 79 µM (inactive). As for `COc1cccc(-c2cc3nc(C)c(C)c(N4CCN(C(=O)c5ccoc5)CC4)n3n2)c1`, the IC50 is > 79 µM (inactive).

With `COC(=O)c1cccc(S(=O)(=O)N(Cc2ccco2)Cc2cc3cc(OC)ccc3[nH]c2=O)c1`, the IC50 was > 79 µM (inactive). Consider `CCOC(=O)CSc1nc2sc(C)c(C)c2c(=O)[nH]1`, for which the IC50 was > 79 µM (inactive). As to `CCC(C)N1C(=O)S/C(=C/c2ccc3c(c2)n(C)c(=O)n3C)C1=O` (configuration not stated), the IC50 was > 79 µM (inactive). Regarding `CCCC(=O)Nc1cc(C)c2c(=O)oc3ccccc3c2n1`, the IC50 was > 79 µM (inactive). Take `Cc1ccccc1NC(=O)COc1cccc2c1CCNC2=O`: the IC50 was > 79 µM (inactive).

Consider `Oc1c(Cl)cc(Cl)cc1C=Nc1ccc(N2CCOCC2)cc1`, for which the IC50 was 31.5 µM (inactive). Next, `C=CCOC(=O)COc1ccc2c3c(c(=O)oc2c1)CCCC3`: 28.1 µM.

Regarding `COc1ccc(/C=N/NC(=O)c2cc(-c3ccc4c(c3)OCO4)n[nH]2)cc1OC`, the IC50 was > 79 µM (inactive). As for `Cc1cccc(NC(=O)c2cc(-c3ccco3)nc3ccccc23)n1`, the figure is > 79 µM (inactive).

`CCN(CC)c1ccc(C(=O)NNC(=O)CCc2nc3ccccc3c(=O)[nH]2)cc1`: the IC50 was > 79 µM (inactive). Take `COc1ccc(CSc2nc3ccccc3c(=O)[nH]2)cc1F`: the IC50 is > 79 µM (inactive). As for `O=C1c2ccccc2NC(c2ccc(-c3ccc(Br)cc3)o2)N1O` (configuration not stated), the figure is 19 µM; as for `NC(=O)C1=C(c2ccccc2)c2ccccc2C1=O`, > 79 µM (inactive).

Take `COc1cc2c(C(=O)NCc3ccccn3)cn(CC(C)C)c(=O)c2cc1OC`: the IC50 is 54.6 µM (inactive). As for `O=C(Nc1ccc2oc(-c3ccccc3F)nc2c1)c1ccc([N+](=O)[O-])o1`, the IC50 was > 79 µM (inactive).

For the compound `COc1ccc(CCNC(=O)c2cc3c(C)nccc3[nH]c2=O)cc1OC`, the IC50 is 16.3 µM. On to `CC(=NCCCn1ccnc1)c1c(-c2ccccc2)[nH]n(-c2nc3ccccc3s2)c1=O`, for which the IC50 is > 79 µM (inactive).

In the case of `Cc1cc(C)c(C(=O)CC(=O)c2ccccc2Cl)c(O)c1`, the IC50 was > 79 µM (inactive). Next, `COc1cccc(CN2CCN(C(=O)c3cc(-c4cccnc4)nc4ccc(C)cc34)CC2)c1`: 22.4 µM; `O=C(CCc1nc2ccccc2c(=O)[nH]1)NCC(=O)Nc1ccc(F)c(F)c1`: > 79 µM (inactive); `CC1Nc2ncnc(N3CCN(c4ccccc4)CC3)c2N(Cc2ccc(Br)cc2)C1=O` (configuration not stated): > 79 µM (inactive). As for `COc1ccccc1C(=O)Nc1nc(-c2ccc3c(c2)OCCO3)cs1`, the IC50 was > 79 µM (inactive). Regarding `O=c1[nH]c2cccnc2c2ccsc12`, the IC50 is > 79 µM (inactive).

As to `CS(=O)(=O)Nc1cccc(NC(=O)c2cccc3c(-c4cccc(C(N)=O)c4)coc23)c1`, the IC50 is > 79 µM (inactive).

In the case of `O=C(CCn1nc(-c2ccccc2)c2ccccc2c1=O)N1CCN(c2ccccc2)CC1`, the IC50 was > 79 µM (inactive). Regarding `COc1cc2[nH]c(=O)n3nc(-c4ccccc4)nc3c2cc1OC`, the IC50 was > 79 µM (inactive). As for `COc1ccc(-c2oc3ncnc(NCCN4CCOCC4)c3c2-c2ccc(OC)cc2)cc1`, the IC50 is 34.3 µM (inactive).

For the compound `COc1cc(C(=O)Nc2ccc(NC(=O)c3cccc(Cl)c3)nc2)cc(OC)c1OC`, the IC50 is 13.8 µM. As for `Cc1cccc(OCCn2nc(C(=O)O)c3ccccc3c2=O)c1`, the figure is > 79 µM (inactive). In the case of `CCOC(=O)C1CCN(C(c2cc3c(C)ccc(C)c3[nH]c2=O)c2nnnn2C2CCCCC2)CC1` (configuration not stated), the IC50 was > 79 µM (inactive). Turning to `Cc1ccc(S(=O)(=O)N(C)C)cc1NC(=O)COC(=O)Cc1n[nH]c(=O)c2ccccc12`, the IC50 is > 79 µM (inactive). As to `CCOC(=O)C1C(=O)NC(SCC(=O)OC)=C(C#N)C1c1ccccc1OCC` (configuration not stated), the IC50 is 17 µM. As for `Cc1ccc(C)c2[nH]c(=O)c(CN(Cc3ccc4c(c3)OCO4)Cc3nnnn3Cc3ccco3)cc12`, the figure is 13.1 µM; as for `CC(Oc1ccc(F)cc1)C(=O)Nc1nc(-c2ccccn2)cs1` (configuration not stated), 37.5 µM (inactive). As for `CCCN(CCC)S(=O)(=O)c1ccc(C(=O)Nc2nnc(-c3cc(OC)cc(OC)c3)o2)cc1`, the figure is 9.06 µM.

`COc1cc2ccnc(C=O)c2cc1OC`: the IC50 is > 79 µM (inactive). With `COc1ccc(C(C(=O)NCc2ccccc2)N(Cc2ccco2)C(=O)c2snc(C(N)=O)c2N)cc1` (configuration not stated), the IC50 was > 79 µM (inactive).

For the compound `N#C/C(=C\c1cn(-c2ccccc2)nc1-c1cccnc1)c1nnc2n1CCCCC2`, the IC50 was 21.7 µM. Regarding `Cc1ccc(C(=O)CSc2nc3ccccc3c(=O)[nH]2)cc1`, the IC50 was > 79 µM (inactive). Regarding `CCOC(=O)c1nc(Nc2ccc(C(C)=O)cc2)c2ccccc2n1`, the IC50 was 18.9 µM. Take `O=c1c2ccccc2nc(/C=C/c2ccc(O)cc2)n1-c1ccc(O)cc1`: the IC50 was > 79 µM (inactive). `COc1cccc(CN(C)C(=O)C(Cc2ccccc2)NC(=O)c2ccccc2)c1OC` (configuration not stated): the half-inhibitory concentration (IC50) was 20.8 µM. With `O=c1[nH]c2cc3c(cc2cc1CN(Cc1nnnn1CC1CCCO1)C1CCCCC1)OCO3` (configuration not stated), the IC50 was 57.1 µM (inactive). Next, `C=CC[C@@H](CC(=O)N[C@H](CO)Cc1ccccc1)C(=O)N[C@@H](COC(=O)[C@@H](CC=C)CC(=O)OC(C)(C)C)Cc1ccccc1`: 17.5 µM; `CC(=O)c1cccc(-c2cnc3c(NC=O)cc(-c4ccccc4F)cn23)c1`: 17.9 µM; `O=C(COc1cccc(F)c1)Nc1nc(-c2ccccn2)cs1`: 30.9 µM (inactive). `CCC(=O)N1CCN(c2ccccc2NC(=O)c2ccc(-c3cccc([N+](=O)[O-])c3)o2)CC1`: the IC50 was > 79 µM (inactive). As for `Cc1cccc(NC(=O)COc2cccc3c2CCNC3=O)c1`, the figure is > 79 µM (inactive); as for `CN(C)C(=O)CSc1nc2ccccc2c(=O)[nH]1`, > 79 µM (inactive); as for `CCOC(=O)c1ccccc1NC(=O)CSc1ccc(-c2ccccn2)nn1`, 23.4 µM. In the case of `Cc1c(C=O)c2ccccn2c1C(=O)c1ccc(Cl)c([N+](=O)[O-])c1`, the IC50 was > 79 µM (inactive). Next, `Cc1ccc(NC(=O)CCCc2nc3ccccc3c(=O)[nH]2)c(Cl)c1`: 40 µM (inactive); `COc1cc2c(cc1OC)C(COc1ccc3c(C)cc(=O)oc3c1)N(C(=O)c1ccco1)CC2` (configuration not stated): 10.1 µM.

The values above are taken from PubChem BioAssay AID588780 (Sanford-Burnham Center for Chemical Genomics, 2011).
